# Measured values published in article PMC9144445, “Substrate-Based Design of Cytosolic Nucleotidase IIIB Inhibitors and Structural Insights into Inhibition Mechanism” (Pharmaceuticals, 2022).
# What was measured:
# mouse eIF4E = mouse eIF4E (Mus musculus, UniProt P63073); assay: eIF4E competition binding assay with pyrene-labelled fluorescent probe; details: for EC50: mouse eIF4E 400 nM, pyrene-labelled probe 75 nM
# human cN-IIIA = human cN-IIIA (Homo sapiens, UniProt Q9H0P0); assay: IC50 determination for cN-IIIA (MGP assay); format: biochemical; details: for IC50: m7GMP 100 µM, cN-IIIA 40 nM, 25 min, MGP assay
# Method: To determine the inhibitory potency towards cN-IIIA, compounds were evaluated using the MGP assay in an analogous way as described above for cN-IIIB.
# All experiments were performed in triplicate.
# [1] = tested on: endogenous cN-IIIB, m^7GMP dephosphorylation in cytoplasmic HEK 293T cell extracts; assay: m7GMP decay in HEK 293T cell extract in presence of inhibitors (LC–MS/MS); format: biochemical, human; details: compound 100 µM, [2H]-m7GMP 4 µM, 37 °C, up to 60 min
# Method: The expression of cN-IIIB was verified by Western blot and was the most abundant in HEK 293T among four tested cell lines (Figure 9A). The cN-IIIA isoform was likewise abundantly expressed in the HEK cell line. The stability and activity of the inhibitors were tested in HEK 293T cell extracts using mass spectrometry analysis. The evaluated set of compounds contained some of the identified cN-IIIB inhibitors: 4, 5, 5a, and 5d of varying inhibitory potencies as well as compound S16 with no inhibitory potency (negative control). Initially, we verified the stability of the compounds in the extracts. The LC–MS/MS analyses confirmed that all analyzed compounds were stable in the lysate for at least 60 min (Figure 9B). Then, we monitored the time-dependent degradation of heavy m^7GMP, deuterated within the methyl group ([^2H]-m^7GMP]) in the extracts, in the presence or absence of the evaluated compounds (100 µM each, Figure 9C).
# A typical reaction contained 1 µL–40 µM (final concentrations 4 µM) of [^2H]m^7GMP and 9 µL cell extracts. […]
# Chromatographic separation of nucleotides and their metabolites was achieved on a ZORBAX Eclipse Plus C18 analytical column (3.5 μm, 4.6 mm × 100 mm, Agilent) equipped with Eclipse Plus-C18 analytical guard column (5.0 μm, 4.6 × 12.5 mm). […] Then, the analytes in the HPLC eluate were monitored by MS in multiple reaction monitoring (MRM) mode. […]
# Sequence of mouse eIF4E (P63073 whole entry): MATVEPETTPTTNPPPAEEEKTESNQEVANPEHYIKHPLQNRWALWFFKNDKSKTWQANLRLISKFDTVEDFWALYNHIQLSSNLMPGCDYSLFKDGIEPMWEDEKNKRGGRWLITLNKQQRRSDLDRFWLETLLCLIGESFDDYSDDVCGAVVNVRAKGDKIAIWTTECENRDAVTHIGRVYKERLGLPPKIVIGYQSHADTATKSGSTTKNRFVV
Compound,EC50 (mouse eIF4E),IC50 (human cN-IIIA),Affinity to eIF4E compared to m7GMP (mouse eIF4E; comparison of EC50 values),SI (cN-IIIB/eIF4E) (mouse eIF4E; ratio of IC50 for cN-IIIB and EC50 for eIF4E),SI (cN-IIIB/cN-IIIA) (human cN-IIIA; ratio of IC50 for cN-IIIB and IC50 for cN-IIIA),Inhibition of m7GMP decay in HEK 293T cell extract (in words) [1]
Nc1nc2c(c(=O)[nH]1)[n+](Cc1ccc(F)c(F)c1)cn2C1OC(COP(=O)([O-])O)C(O)C1O (centres unmarked) [Compound 5d],39.9 ± 8.5 µM,106 ± 26.6 µM,–,–,–,–
Cc1cccc(C[n+]2cn([C@@H]3O[C@H](COP(=O)([O-])O)[C@@H](O)[C@H]3O)c3nc(N)[nH]c(=O)c32)c1 [Compound 5a],22.6 ± 4.3 µM,127 ± 35.6 µM,–,–,–,–
"Nc1nc2c(c(=O)[nH]1)[n+](Cc1ccc(C(F)(F)F)cc1)cn2[C@@H]1O[C@H](COP(=O)([O-])O)[C@@H](O)[C@H]1O [Compound 5g, 7-(4-Trifluoromethylbenzyl)guanosine 5’-Monophosphate]",118 ± 66.4 µM,42.5 ± 8.3 µM,at least two-fold lower affinity,0.06,0.17,–
Nc1nc2c(c(=O)[nH]1)[n+](Cc1ccccc1)cn2[C@@H]1O[C@H](COP(=O)([O-])O)[C@@H](O)[C@H]1O [Compound 5],–,113 ± 38.5 µM,–,–,–,–
C[n+]1cn([C@@H]2O[C@H](Cn3cc(CCP(=O)([O-])O)nn3)[C@@H](O)[C@H]2O)c2nc(N)[nH]c(=O)c21 [Compound S16],–,–,–,–,–,almost complete decay of m^7GMP was observed within the first 50 min
